Tests used:
[1] = system: Rabbit #1 polyclonal antibody (Rapa-42-DVS-KLH immunogen); experiment: Inhibition ELISA of rabbit #1 polyclonal serum; type: binding; set-up: concentration or dose not given beside the values; details: Rapa antigen coated ELISA plate
Protocol: (§1) Inhibition ELISA Protocol
(§2) 1. Use Falcon® Pro-bind™ inununoplates.
(§3) 2. Dilute coating antigen to 1 μg/mL in carbonate-bicarbonate buffer.
(§4) Add 100 μL per well and incubate overnight at 4° C.
(§5) 3. On the same day prepare inhibiting antigen tubes. Aliquot antibodies into glass test tubes. Prepare appropriate antigen concentration in ethanol and add to aliquoted antibody at 10 μL ethanol solution/250 μL antibody.
(§6) Vortex tubes and incubate overnight at 4° C.
(§7) 4. Shake out wells and wash 3× with 200 μL PBS/0.05% TWEEN™ (polyoxyethylene-sorbitol) (v/v) per well.
(§8) 5. Add 200 μL blocking buffer per well (PBS/2% BSA (w/v)).
(§9) Incubate 60 min at room temperature.
(§10) 7. Transfer contents of inhibition tubes to antigen-coated plate, 100 μL per well. Incubate 60 min at 37° C.
(§11) 9. […] Add 100 μL per well and incubate at 37° C. for 60 min.
(§12) 11. […] Add 100 μL per well and incubate in the dark at room temperature. Absorbance can be read at 405 nm at approximately 15-min intervals.

[2] = system: Chicken polyclonal antibody (IgY, Rapa-42-DVS-KLH immunogen); experiment: Inhibition ELISA of chicken IgY prep; type: binding; set-up: concentration or dose not given beside the values; details: Rapa antigen coated ELISA plate
Protocol: as §1, §2, §3, §4, §5, §6, §7, §8, §9, §10, §11, §12

MoAb R-1-1 = experiment: Inhibition ELISA of MoAb R-1-1; type: binding, mouse; set-up: concentration or dose not given beside the values; details: tissue culture supernatant
Protocol: as §1, §2, §3, §4, §5, §6, §7, §8, §9, §10, §11, §12
(§13) To further characterize the reactivity of monoclonal antibodies from various clones, inhibition ELISA were performed.

MoAb R-1-5 = experiment: Inhibition ELISA of MoAb R-1-5; type: binding, mouse; set-up: concentration or dose not given beside the values; details: tissue culture supernatant
Protocol: as §1, §2, §3, §4, §5, §6, §7, §8, §9, §10, §11, §12, §13

MoAb R-2-2 = experiment: Inhibition ELISA of MoAb R-2-2; type: binding, mouse; set-up: concentration or dose not given beside the values; details: tissue culture supernatant
Protocol: as §1, §2, §3, §4, §5, §6, §7, §8, §9, §10, §11, §12, §13

MoAb R-3-1 = experiment: Inhibition ELISA of MoAb R-3-1; type: binding, mouse; set-up: concentration or dose not given beside the values; details: tissue culture supernatant
Protocol: as §1, §2, §3, §4, §5, §6, §7, §8, §9, §10, §11, §12, §13

[3] = system: Mouse polyclonal antibody Rapa-DVS #7; experiment: Inhibition ELISA of mouse polyclonal serum Rapa-DVS #7; type: binding; set-up: concentration or dose not given beside the values
Protocol: as §1, §2, §3, §4, §5, §6, §7, §8, §9, §10, §11, §12

[4] = system: Mouse polyclonal antibody Rapa-DVS #9; experiment: Inhibition ELISA of mouse polyclonal serum Rapa-DVS #9; type: binding; set-up: concentration or dose not given beside the values
Protocol: as §1, §2, §3, §4, §5, §6, §7, §8, §9, §10, §11, §12

MoAb R-4-1 = experiment: Inhibition ELISA of MoAb R-4-1; type: binding, mouse; details: for Percent inhibition of MoAb R-4-1: tissue culture supernatant
Protocol: as §1, §2, §3, §4, §5, §6, §7, §8, §9, §10, §11, §12

MoAb R-4-7 = experiment: Inhibition ELISA of MoAb R-4-7; type: binding, mouse; details: for Percent inhibition of MoAb R-4-7: tissue culture supernatant
Protocol: as §1, §2, §3, §4, §5, §6, §7, §8, §9, §10, §11, §12

MoAb R-5-3 = experiment: Inhibition ELISA of MoAb R-5-3; type: binding, mouse; details: for Percent inhibition of MoAb R-5-3: tissue culture supernatant
Protocol: as §1, §2, §3, §4, §5, §6, §7, §8, §9, §10, §11, §12

[5] = system: Mouse polyclonal antibody Rapa-27 #12 (Rapa-27-ox-DVS-KLH immunogen); experiment: Inhibition ELISA of mouse polyclonal serum Rapa-27 #12; set-up: concentration or dose not given beside the values; details: binding to Rapa-27-HSA
Protocol: as §1, §2, §3, §4, §5, §6, §7, §8, §9, §10, §11, §12

MoAb R-6-2 = experiment: Inhibition ELISA of MoAb R-6-2; type: binding, mouse
Protocol: as §1, §2, §3, §4, §5, §6, §7, §8, §9, §10, §11, §12

MoAb R-6-3 = experiment: Inhibition ELISA of MoAb R-6-3; type: binding, mouse
Protocol: as §1, §2, §3, §4, §5, §6, §7, §8, §9, §10, §11, §12

lymphocytes = experiment: In vitro mixed lymphocyte reaction (MLR) assay, two-way lymphocyte proliferation; type: cell-based; details: 3H-thymidine incorporation
Excerpt: The MLR assay is useful for identifying rapamycin metabolites with biological (immunosupressive) activity and to quantify this activity relative to the immunosuppressive activity of the parent rapamycin molecule.
An example of a two-way lymphocyte proliferation assay procedure useful for this purpose is as follows:
1. Collect blood from two individuals (20 mls each) and isolate lymphocytes using Ficoll-Paque™ (polysucrose and sodium diatrizoate) (Pharmacia Biotech).
2. Count lymphocytes at 1:10 dilution in 2% acetic acid (v/v).
3. Prepare 10 mls of each lymphocyte populations (A+B) at 1×10^6 cells/ml in DMEM/20% FCS (v/v).
4. Set up a 96 well sterile tissue culture plate, flat bottom (Sarstedt, cat # 83.1835). To each well add:
5. Aliquot 100 μl per well lymphocyte population A
6. Aliquot 100 μl per well lymphocyte population B
7. Aliquot 20 μl per well of drug (rapamycin and rapamycin metabolites M1-5) serially diluted 0 to 1000 μg/L in triplicate in DMEM with no supplements.
8. […]
10. […] Wash cells 3× with 1.0-ml sterile distilled water.
Note: All procedures are done using sterile techniques in a biological flow hood.
11. Place filters in Scintilation vials and add 1.5 mls of ScintiSafe Plus™ 50% scintillation fluid (Fisher, cat #SX-25-5).
12. Measure the amount of radioactivity incorporated in the lymphocytes using a beta counter (Micromedic System Inc., TAURUS™ Automatic Liquid Scintillation Counter) for 1.0 minute.
13. Calculate averages and standard deviations for each drug and express results as: [formula]

[6] = Relative concentrations of Rapa metabolites in pooled whole blood patient samples (LC/MS); type: in vivo; details: Rapa = 1
Excerpt: No individual metabolite is found at a concentration greater than 20% of the Rapa parent level.

Compound	Percent inhibition of Rabbit #1 polyclonal antibody [1] [%]	Percent inhibition of Chicken polyclonal antibody [2] [%]	Percent inhibition of MoAb R-1-1 (MoAb R-1-1) [%]	Percent inhibition of MoAb R-1-5 (MoAb R-1-5) [%]	Percent inhibition of MoAb R-2-2 (MoAb R-2-2) [%]	Percent inhibition of MoAb R-3-1 (MoAb R-3-1) [%]	Percent inhibition of mouse polyclonal antibody Rapa-DVS #7 [3] [%]	Percent inhibition of mouse polyclonal antibody Rapa-DVS #9 [4] [%]	Percent inhibition of MoAb R-4-1 (MoAb R-4-1) [%]	Percent inhibition of MoAb R-4-7 (MoAb R-4-7) [%]	Percent inhibition of MoAb R-5-3 (MoAb R-5-3) [%]	Percent inhibition of mouse polyclonal antibody Rapa-27 #12 [5] [%]	further results
C=CCC1C=C(C)CC(C)CC(OC)C2OC(O)(C(=O)C(=O)N3CCCCC3C(=O)OC(C(C)=CC3CCC(O)C(OC)C3)C(C)C(O)CC1=O)C(C)CC2O (centres unmarked) [FK met 1, 13-O-Demethyl]	0	0	46	24	19	0							
C=CCC1C=C(C)CC(C)CC(O)C2OC(O)(C(=O)C(=O)N3CCCCC3C(=O)OC(C(C)=CC3CCC(O)C(OC)C3)C(C)C(O)CC1=O)C(C)CC2OC (centres unmarked) [FK met 2, 15-O-Demethyl]	0	0	57	36	16	0							
C=CCC1C=C(C)CC(C)CC(OC)C2OC(O)(C(=O)C(=O)N3CCCCC3C(=O)OC(C(C)=CC3CCC(O)C(O)C3)C(C)C(O)CC1=O)C(C)CC2OC (centres unmarked) [FK met 3, 31-O-Demethyl]	0	0	45	26	9	0							
C=CCC1C=C(C)CC(C)CC(OC)C2OC(O)(C(=O)C(=O)N3CCCCC3C(=O)OC(C(C)=CC3CCC(O)C(O)C3)C(C)C(O)CC1=O)C(C)CC2O (centres unmarked) [FK met 4, 13,3 1-Didemethyl]	0	13	53	38	13	0							
C=CCC1C=C(C)CC(C)CC(O)C2OC(O)(C(=O)C(=O)N3CCCCC3C(=O)OC(C(C)=CC3CCC(O)C(O)C3)C(C)C(O)CC1=O)C(C)CC2OC (centres unmarked) [FK met 5, 15,3 1-O-Didemethyl]	0	0	46	26	13	0							
C=CC[C@@H]1/C=C(\C)C[C@H](C)C[C@H](OC)[C@H]2O[C@@](O)(C(=O)C(=O)N3CCCC[C@H]3C(=O)O[C@H](/C(C)=C/[C@@H]3CC[C@@H](O)[C@H](OC)C3)[C@H](C)[C@@H](O)CC1=O)[C@H](C)C[C@@H]2OC [FK, FK-506]	0	0	43	33	16	1	5.6	13.0	8	4	4	11	Percent inhibition of MoAb R-6-2 (MoAb R-6-2): 64%; Percent inhibition of MoAb R-6-3 (MoAb R-6-3): 53%
CO[C@@H]1C[C@H](C[C@@H](C)[C@@H]2CC(=O)[C@H](C)/C=C(\C)[C@@H](O)[C@@H](OC)C(=O)[C@H](C)C[C@H](C)/C=C/C=C/C=C(\C)[C@@H](O)C[C@@H]3CC[C@@H](C)[C@@](O)(O3)C(=O)C(=O)N3CCCC[C@H]3C(=O)O2)CC[C@H]1O [M3, 7-O-Demethyl Rapamycin]	15	35	32	56	26	92	28.3	30.8	85	67	37		Percent inhibition of mouse polyclonal antibody Rapa-27 #12 ([5]; listed as Met 3): 43%; Percent inhibition of mouse polyclonal antibody Rapa-27 #12 ([5]; listed as metabolite # 3): 42%; Mixed Lymphocyte Reaction IC50, Mean (lymphocytes): 2.85 µg/L; Relative Concentration in whole blood [6]: 0.10
CO[C@H]1C[C@@H]2CC[C@@H](C)[C@@](O)(O2)C(=O)C(=O)N2CCCC[C@H]2C(=O)O[C@H]([C@H](C)C[C@@H]2CC[C@@H](O)[C@H](O)C2)CC(=O)[C@H](C)/C=C(\C)[C@@H](O)[C@@H](OC)C(=O)[C@H](C)C[C@H](C)/C=C/C=C/C=C/1C [M4, 41-O-Demethyl Rapamycin]	28	18	30	57	71	96	40.1	28.6	82	54	47	37	Mixed Lymphocyte Reaction IC50, Mean (lymphocytes): 5.9 µg/L; Relative Concentration in whole blood [6]: 0.10
CO[C@H]1C[C@@H]2CC[C@@H](C)[C@@](O)(O2)C(=O)C(=O)N2CCCC[C@H]2C(=O)O[C@H]([C@H](C)C[C@@H]2CC[C@@H](O)[C@H](O)C2)CC(=O)[C@H](C)/C=C(\C)[C@@H](O)[C@@H](O)C(=O)[C@H](C)C[C@H](C)/C=C/C=C/C=C/1C [M5, 32,41-Demethyl Rapamycin]	16	35	29	44	10	94	39.8	37.3	88	87	46	0	Mixed Lymphocyte Reaction IC50, Mean (lymphocytes): 4.67 µg/L; Relative Concentration in whole blood [6]: 0.02
CO[C@H]1C[C@@H]2CC[C@@H](C)[C@@](O)(O2)C(=O)C(=O)N2CCCC[C@H]2C(=O)O[C@H]([C@H](C)C[C@@H]2CC[C@@H](OCCO)[C@H](OC)C2)CC(=O)[C@H](C)/C=C(\C)[C@@H](O)[C@@H](OC)C(=O)[C@H](C)C[C@H](C)/C=C/C=C/C=C/1C [RAD]													Inhibition of MoAb R-4-1 (in words) (MoAb R-4-1; purified MoAb, increasing concentrations of Rapa or RAD, FIG. 3A): inhibited; Inhibition of MoAb R-4-7 (in words) (MoAb R-4-7): inhibited; Inhibition of MoAb R-5-3 (in words) (MoAb R-5-3; purified MoAb, increasing concentrations of Rapa or RAD, FIG. 3B): inhibited; Percent inhibition of MoAb R-6-2 (MoAb R-6-2): 70%; Percent inhibition of MoAb R-6-3 (MoAb R-6-3): 58%
keyhole limpet hemocyanin [KLH]	0	0	3	10	16	0	7.8	12.5				0	
